Columns and labels:
ENT1 = target: T1, ENT1 (Homo sapiens, UniProt Q99808); assay: [3H]uridine uptake in PK15NTD/ENT1 cells; assay type: cell-based; settings: for IC50: [3H]uridine 1 μM, 1 min, PK15NTD/ENT1 cells, read-out: IC50 against ENT1
T1 construct: expressed in transfected cells
T1 sequence (Q99808 1-456): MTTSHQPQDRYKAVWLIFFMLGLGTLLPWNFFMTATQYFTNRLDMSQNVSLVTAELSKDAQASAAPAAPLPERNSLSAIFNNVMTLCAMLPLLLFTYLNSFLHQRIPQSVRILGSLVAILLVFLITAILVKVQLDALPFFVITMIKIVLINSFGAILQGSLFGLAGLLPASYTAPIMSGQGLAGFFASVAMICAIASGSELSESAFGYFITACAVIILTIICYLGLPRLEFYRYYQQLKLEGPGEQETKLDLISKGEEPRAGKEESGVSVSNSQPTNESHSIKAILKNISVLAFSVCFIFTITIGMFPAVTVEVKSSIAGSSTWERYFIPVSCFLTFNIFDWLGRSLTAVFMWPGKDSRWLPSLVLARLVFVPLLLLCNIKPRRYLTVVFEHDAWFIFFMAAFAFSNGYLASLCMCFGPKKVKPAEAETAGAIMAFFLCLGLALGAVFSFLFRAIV
Procedure: (§1) Nucleoside transporter-deficient porcine kidney fibroblast cells (PK15NTD) stably transfected with cloned human ENT1 or ENT2 ([Ward et al., 2000]) were used as the in vitro models. The cells were cultured in Dulbecco’s Modified Eagle’s Medium (DMEM) supplemented with 10% (v/v) foetal bovine serum, 0.5 mg/ml geneticin, 100 units/ml penicillin, 100 μg/ml streptomycin and 0.25 μg/ml of amphotericin B at 37°C in 5% CO2/95% air.
(§2) Confluent monolayers of PK15NTD/ENT1 and PK15NTD/ENT2 cells in 24-well plates were washed thrice with HEPES-buffered Ringer’s solution containing (mM): 135 NaCl, 10 glucose, 5 KCl, 5 HEPES, 3.33 NaH2PO4, 1.0 CaCl2, 1.0 MgCl2, 0.83 Na2HPO4; pH 7.4. The cells were incubated with different concentrations of FPMINT analogues (from 10 nM to 100 μM) containing [^3H]uridine (2 μCi/ml, 1 μM) for 1 min. Passive uridine uptake was determined by incubating the cells in HEPES-buffered Ringer’s solution containing [^3H]uridine in the presence of 0.5 mM NBMPR. The cells were rapidly washed five times with ice-cold phosphate-buffered saline (PBS). After air-drying, the cells were solubilised by overnight incubation in 500 μl of 5% Triton-X100. Next, 300 μl of the cell lysates were mixed with 2 ml of scintillation liquid. The radioactivity of each sample was quantified by a scintillation counter. The protein content in each well was determined spectrophotometrically using a commercial bicinchoninic acid assay (Pierce Biochemicals, Rockford, IL). Uptake values were expressed as picomoles of [^3H]uridine per milligram of cellular protein per minute.
(§3) All data were analysed by GraphPad Prism software (San Diego, CA, United States). Data are expressed as mean ± standard error (SE) of three experiments performed in triplicate. The IC50 values were determined from the dose-response curves fitted with a logistic function. For the kinetic study of [^3H]uridine uptake, apparent K m and V max values were determined from the Michaelis-Menten equation, and K i was determined from the X-intercept of linear regression. Analysis of variance and Student’s t-test were performed for multiple and paired variables, respectively. p values of <0.05 were considered to be statistically significant.

ENT2 = target: T2, ENT2 (Homo sapiens, UniProt Q14542); assay: [3H]uridine uptake in PK15NTD/ENT2 cells; assay type: cell-based; settings: for effect on ENT2: [3H]uridine uptake, 10 nM–100 μM analogue; for IC50: [3H]uridine 1 μM, 1 min, PK15NTD/ENT2 cells, read-out: IC50 against ENT2; for selectivity to ENT2 over ENT1: more selective to ENT2 than to ENT1, from IC50 values
T2 construct: expressed in transfected cells
T2 sequence (Q14542 1-456): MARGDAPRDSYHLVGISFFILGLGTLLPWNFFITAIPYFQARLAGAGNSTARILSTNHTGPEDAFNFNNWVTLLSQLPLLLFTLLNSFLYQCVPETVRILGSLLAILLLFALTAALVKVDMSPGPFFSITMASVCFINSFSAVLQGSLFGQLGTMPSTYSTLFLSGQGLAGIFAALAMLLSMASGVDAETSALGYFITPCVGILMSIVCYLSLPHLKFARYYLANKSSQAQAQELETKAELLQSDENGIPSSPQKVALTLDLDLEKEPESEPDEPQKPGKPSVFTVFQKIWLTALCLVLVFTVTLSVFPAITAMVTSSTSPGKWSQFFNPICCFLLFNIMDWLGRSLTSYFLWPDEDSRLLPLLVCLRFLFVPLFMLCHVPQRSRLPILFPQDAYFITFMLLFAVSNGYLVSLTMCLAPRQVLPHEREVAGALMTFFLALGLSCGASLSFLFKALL
Procedure: as §1
as §2, with “The” for “Confluent monolayers of PK15NTD/ENT1 and PK15NTD/ENT2 cells in 24-well plates were washed thrice with HEPES-buffered Ringer’s solution containing (mM): 135 NaCl, 10 glucose, 5 KCl, 5 HEPES, 3.33 NaH2PO4, 1.0 CaCl2, 1.0 MgCl2, 0.83 Na2HPO4; pH 7.4. The”
as §3

ENT3 = test system: ENT3; set-up: method as in Baldwin et al., 2005; Barnes et al., 2006; settings: ref Baldwin et al., 2005; Barnes et al., 2006; cited from earlier work
ENT4 = test system: ENT4; set-up: method as in Baldwin et al., 2005; Barnes et al., 2006; settings: ref Baldwin et al., 2005; Barnes et al., 2006; cited from earlier work
ENT1 and ENT2 [1] = settings: ref Ward et al., 2000, cited from earlier work; for fold more potent in inhibiting ENT1 than in inhibiting ENT2: Playa et al., 2014
ENT1 and ENT2 [2] = test system: ENT1 and ENT2; set-up: method as in Ward et al., 2000; settings: substrate affinity; ref Ward et al., 2000; cited from earlier work

Nc1nc(CN2CCN(c3ccccc3F)CC2)nc(Nc2ccccc2)n1 [Compound 1a]
effect on ENT1 (ENT1; [3H]uridine uptake, 10 nM–100 μM analogue): negligible effects
effect on ENT2 (ENT2): negligible effects

Nc1nc(CN2CCN(c3ccccc3F)CC2)nc(Nc2cccc(Cl)c2)n1 [Compound 1b]
IC50 (ENT1): 1.82 µM
effect on ENT2 (ENT2): no effect

CCc1ccc(Nc2nc(N)nc(CN3CCN(c4ccccc4F)CC3)n2)cc1 [Compound 1c]
IC50 (ENT1): 171 µM
IC50 (ENT2): 36.8 µM
selectivity to ENT2 over ENT1 (ENT2): 4.647 fold

COc1ccc(Nc2nc(N)nc(CN3CCN(c4ccccc4F)CC3)n2)cc1 [Compound 1d]
IC50 (ENT1): 0.59 µM
IC50 (ENT2): 77.1 µM

Nc1nc(CN2CCN(c3ccccc3)CC2)nc(Nc2cccc3ccccc23)n1 [Compound 2a]
IC50 (ENT1): 105 µM
effect on ENT2 (ENT2): did not inhibit

Nc1nc(CN2CCN(c3cccc(Cl)c3)CC2)nc(Nc2cccc3ccccc23)n1 [Compound 2b]
IC50 (ENT1): 12.7 µM
IC50 (ENT2): 2.95 µM
selectivity to ENT2 over ENT1 (ENT2): 4.29 fold

Nc1nc(CN2CCN(c3ccc(F)cc3)CC2)nc(Nc2cccc(Cl)c2)n1 [Compound 3b]
IC50 (ENT1): 1.65 µM
effect on ENT2 (ENT2): did not inhibit

O=[N+]([O-])c1ccc(CSc2ncnc3c2ncn3[C@@H]2O[C@H](CO)[C@@H](O)[C@H]2O)cc1 [NBMPR, S-(4-nitrobenzyl)-6-thioinosine]
sensitivity of ENT3 to inhibitor (ENT3): inert
sensitivity of ENT4 to inhibitor (ENT4): inert
fold more potent in inhibiting ENT1 than in inhibiting ENT2 (ENT1 and ENT2 [1]): 7,000 fold
IC50 of ENT2 fold higher than that of ENT1 (ENT1 and ENT2 [1]): 7,000 fold

Nc1ncnc2c1ncn2[C@@H]1O[C@H](CO)[C@@H](O)[C@H]1O [adenosine]
affinity of ENT1 fold higher than that of ENT2 (ENT1 and ENT2 [2]): 2.8 fold

Nc1ccn([C@@H]2O[C@H](CO)[C@@H](O)[C@H]2O)c(=O)n1 [cytidine]
affinity of ENT1 fold higher than that of ENT2 (ENT1 and ENT2 [2]): 7.7 fold

COc1cc(C(=O)OCCCN2CCCN(CCCOC(=O)c3cc(OC)c(OC)c(OC)c3)CC2)cc(OC)c1OC [dilazep]
fold more potent in inhibiting ENT1 than in inhibiting ENT2 (ENT1 and ENT2 [1]): 502 fold

OCCN(CCO)c1nc(N2CCCCC2)c2nc(N(CCO)CCO)nc(N3CCCCC3)c2n1 [dipyridamole]
sensitivity of ENT3 to inhibitor (ENT3): inert
sensitivity of ENT4 to inhibitor (ENT4): inert
fold more potent in inhibiting ENT1 than in inhibiting ENT2 (ENT1 and ENT2 [1]): 71 fold
IC50 of ENT2 fold higher than that of ENT1 (ENT1 and ENT2 [1]): 71 fold

Nc1nc2c(ncn2[C@@H]2O[C@H](CO)[C@@H](O)[C@H]2O)c(=O)[nH]1 [guanosine]
affinity of ENT1 fold higher than that of ENT2 (ENT1 and ENT2 [2]): 19.3 fold

Cc1cn([C@H]2C[C@H](O)[C@@H](CO)O2)c(=O)[nH]c1=O [thymidine]
affinity of ENT1 fold higher than that of ENT2 (ENT1 and ENT2 [2]): 2.6 fold
